Assays:
Assay type in all cases: in vivo
[1] = test system: Echinochloa crus-galli (ECHCG); test: Post-emergence biological efficacy, glasshouse pot test; details: 312 h, post-emergence, 1,000 g/ha, evaluated after 13 days (100=total damage; 0=no damage), read-out: Percentage damage caused to weed species, ECHCG
How it was run: (§1)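 Pot-grown weeds were sprayed 8 days after sowing with test compound in acetone/water (50:50) with 0.5% Tween 20 at 1000 or 250 g/ha. Glasshouse at 24/16° C day/night, 14 h light, 65% humidity. Damage scored 0-100 (100 = total damage) after 13 days.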

[2] = test system: Amaranthus retoflexus (AMARE); test: as above; details: Amaranthus retroflexus, 312 h; post-emergence, 1,000 g/ha, evaluated after 13 days (100=total damage; 0=no damage); read-out: Percentage damage caused to weed species, AMARE
How it was run: as §1

Solanum nigrum (SOLNI) [3] = test: as above; details: 312 h, post-emergence, 1,000 g/ha, evaluated after 13 days (100=total damage; 0=no damage), read-out: Percentage damage caused to weed species, SOLNI
How it was run: as §1

[4] = test system: Ipomea hederaceae (IPOHE); test: as above; details: Ipomoea hederacea, 312 h; post-emergence, 1,000 g/ha, evaluated after 13 days (100=total damage; 0=no damage); read-out: Percentage damage caused to weed species, IPOHE
How it was run: as §1

[5] = test system: Alopecurus myosuroides (ALOMY); test: as above; details: 312 h, post-emergence, 1,000 g/ha, evaluated after 13 days (100=total damage; 0=no damage), read-out: Percentage damage caused to weed species, ALOMY
How it was run: as §1

Setaria faberi (SETFA) [6] = test: as above; details: 312 h, post-emergence, 1,000 g/ha, evaluated after 13 days (100=total damage; 0=no damage), read-out: Percentage damage caused to weed species, SETFA
How it was run: as §1

[7] = test system: Echinochloa crus-galli (ECHCG); test: Pre-emergence biological efficacy, glasshouse pot test; details: 312 h, pre-emergence, 1,000 g/ha, evaluated after 13 days (100=total damage; 0=no damage), read-out: Percentage damage ECHCG
How it was run: (§2)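 Visual phytotoxicity (0 no damage, 100 total damage) assessed 13 d after treatment. Soil-sown pots sprayed one day post-sowing; dose 1000 or 250 g/ha; formulation in acetone/water 50:50, 0.5% Tween 20.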

[8] = test system: Amaranthus retoflexus (AMARE); test: as above; details: Amaranthus retroflexus, 312 h; pre-emergence, 1,000 g/ha, evaluated after 13 days (100=total damage; 0=no damage); read-out: Percentage damage AMARE
How it was run: as §2

Solanum nigrum (SOLNI) [9] = test: as above; details: 312 h, pre-emergence, 1,000 g/ha, evaluated after 13 days (100=total damage; 0=no damage), read-out: Percentage damage SOLNI
How it was run: as §2

[10] = test system: Ipomea hederaceae (IPOHE); test: as above; details: Ipomoea hederacea, 312 h; pre-emergence, 1,000 g/ha, evaluated after 13 days (100=total damage; 0=no damage); read-out: Percentage damage IPOHE
How it was run: as §2

[11] = test system: Alopecurus myosuroides (ALOMY); test: as above; details: 312 h, pre-emergence, 1,000 g/ha, evaluated after 13 days (100=total damage; 0=no damage), read-out: Percentage damage ALOMY
How it was run: as §2

Setaria faberi (SETFA) [12] = test: as above; details: 312 h, pre-emergence, 1,000 g/ha, evaluated after 13 days (100=total damage; 0=no damage), read-out: Percentage damage SETFA
How it was run: as §2

Row | Structure (SMILES) | pest or weed control at 1000 g/ha [1] [%] | pest or weed control at 1000 g/ha [2] [%] | pest or weed control at 1000 g/ha (Solanum nigrum (SOLNI) [3]) [%] | pest or weed control at 1000 g/ha [4] [%] | pest or weed control at 1000 g/ha [5] [%] | pest or weed control at 1000 g/ha (Setaria faberi (SETFA) [6]) [%] | pest or weed control at 1000 g/ha [7] [%] | pest or weed control at 1000 g/ha [8] [%] | pest or weed control at 1000 g/ha (Solanum nigrum (SOLNI) [9]) [%] | pest or weed control at 1000 g/ha [10] [%] | pest or weed control at 1000 g/ha [11] [%] | pest or weed control at 1000 g/ha (Setaria faberi (SETFA) [12]) [%]
1 | COC(=O)c1nc(C2CC2)nc(NCCc2c[nH]c3ccccc23)c1Cl [Compound 4-226, 5-Chloro-2-cyclopropyl-4-[2-(indol-3-yl)ethylamino]-6-methoxycarbonyl-pyrimidine] | 10 | 100 | 80 | 60 | 30 | 50 | 10 | 70 | 60 | 100 | 0 | 0
2 | COC(=O)c1nc(C2CC2)nc(NCCc2c[nH]c3ccc(OC)cc23)c1Cl [Compound 4-227, 5-Chloro-2-cyclopropyl-6-methoxycarbonyl-4-[2-(5-methoxyindol-3-yl)-ethylamino]-pyrimidine] | 30 | 70 | 80 | 70 | 10 | 40 | 0 | 20 | 30 | 50 | 0 | 0
3 | COC(=O)c1nc(C2CC2)nc(NCCc2ccccn2)c1Cl [Compound 4-228, 5-Chloro-2-cyclopropyl-6-methoxycarbonyl-4-[2-(pyrid-2-yl)ethylamino]-pyrimidine] | 40 | 90 | 80 | 70 | 10 | 50 | 0 | 70 | 40 | 40 | 0 | 0
4 | COC(=O)c1nc(C2CC2)nc(NCCc2cc(C(F)(F)F)cc(Cl)n2)c1Cl [Compound 4-229, 5-Chloro-4-[2-(6-chloro-4-trifluoromethyl-pyrid-2-yl)ethylamino]-2-cyclopropyl-6-methoxycarbonyl-pyrimidine] | 20 | 100 | 90 | 60 | 10 | 70 | 0 | 30 | 20 | 20 | 0 | 10
5 | COC(=O)c1nc(C2CC2)nc(NC(C)CC2CCCC2)c1Cl (stereo not drawn) [Compound 4-230, 5-Chloro-4-(2-cyclopentyl-1-methyl-ethylamino)-2-cyclopropyl-6-methoxycarbonyl-pyrimidine] | 0 | 40 | 40 | 40 | 0 | 0 | 0 | 10 | 0 | 40 | 0 | 0
6 | COC(=O)c1nc(C2CC2)nc(NC(C)Cc2c[nH]c3ccccc23)c1Cl (stereo not drawn) [Compound 4-231, 5-Chloro-2-cyclopropyl-4-[2-(indol-3-yl)-1-methyl-ethylamino]-6-methoxy-carbonylpyrimidine] | 10 | 90 | 70 | 60 | 10 | 30 | 0 | 30 | 10 | 70 | 0 | 0
7 | COC(=O)c1nc(C2CC2)nc(NCC(C)c2ccccc2)c1Cl (stereo not drawn) [Compound 4-232, 5-Chloro-2-cyclopropyl-6-methoxycarbonyl-4-[2-(phenyl)propyl-amino]-pyrimidine] | 30 | 100 | 70 | 100 | 20 | 50 | 30 | 90 | 80 | 50 | 10 | 30
8 | COC(=O)c1nc(C2CC2)nc(NCC(C)c2ccc(Cl)cc2)c1Cl (stereo not drawn) [Compound 4-233, 5-Chloro-4-[2-(4-chlorophenyl)propyl-amino]-2-cyclopropyl-6-methoxycarbonyl-pyrimidine] | 20 | 100 | 80 | 60 | 10 | 50 | 0 | 40 | 20 | 10 | 0 | 0
9 | COC(=O)c1nc(C2CC2)nc(NCC(F)c2ccccc2Br)c1Cl (stereo not drawn) [Compound 4-234, 4-[2-(2-Bromophenyl)-2-fluoro-ethylamino]-5-chloro-2-cyclopropyl-6-methoxycarbonyl-pyrimidine] | 20 | 90 | 70 | 60 | 0 | 30 | 0 | 10 | 0 | 0 | 0 | 0
10 | COC(=O)c1nc(C2CC2)nc(NCC(F)c2ccc(Br)cc2)c1Cl (stereo not drawn) [Compound 4-236, 4-[2-(4-Bromophenyl)-2-fluoro-ethylamino]-5-chloro-2-cyclopropyl-6-methoxycarbonyl-pyrimidine] | 0 | 100 | 70 | 60 | 0 | 40 | 0 | 0 | 60 | 0 | 0 | 0
11 | COC(=O)c1nc(C2CC2)nc(NCC(F)c2cccc(C(F)(F)F)c2)c1Cl (stereo not drawn) [Compound 4-237, 5-Chloro-2-cyclopropyl-4-[2-fluoro-2-(3-trifluoromethyl-phenyl)ethylamino]-6-methoxy-carbonylpyrimidine] | 30 | 100 | 70 | 60 | 0 | 40 | 0 | 30 | 0 | 10 | 0 | 0

Source: patent US20110086759A1, “CHEMICAL COMPOUNDS” (SYNGENTA CROP PROTECTION, INC., priority 2007, published 2011)
